For data set [1], the system named is human embryonic stem cell derived neural stem cells (NSCs). Briefly: Neural stem cell proliferation assay (neurogenesis assay, ATP/CellTiterGlo). The settings on record: 96 h, compound concentration at which 150% activity of control (100%) is reached, NSC proliferation by ATP level after 4 days incubation, dose response 8 μM to 8 nM. Type of data set: cell-based. How it is done:
Neural Stem Cell Proliferation Assay
Neurogenic properties of small molecules are determined based on the proliferation of human embryonic stem cell derived neural stem cells (NSCs) which were derived via a dual smad inhibition as previously described (Chambers, S. M., et al., Highly efficient neural conversion of human ES and iPS cells by dual inhibition of SMAD signaling, Nature biotechnology, 2009. 27(3): p. 275-80.)
Compounds respond is measured by the increase in cells based on ATP levels (Promega:CellTiterGlo®) after an incubation period of 4 days.
NSCs are thawed and expanded over 3 passages. On the 14th day, NSCs are seeded in Polyornithin/Laminin coated 384 well plates at a cell density of 21,000 cells/cm^2 in a media volume of 38 μL.
4 hours after cell seeding, compound solutions are added at a volume of 2 μl. Stock solutions of the compounds (water, 5% DMSO) are diluted to obtain a dose response (11 points, dilution factor is 2), ranging from 8 μM to 8 nM. Controls are run to consistently determine the neurogenic properties of the cells:
Negative (neutral) control is cell culture Media (final DMSO concentration: 0.25%).
Positive controls are: • 1. cell culture Media+100 ng/ml FGF2 (final DMSO concentration: 0.1%) • 2. cell culture Media+20 ng/ml EGF (final DMSO concentration: 0.1%) • 3. cell culture Media+100 ng/ml Wnt3a (final DMSO concentration: 0.1%)
After 4 days incubation at 37° C., 5% CO2, the amount of ATP per well is quantified. The ATP concentration is proportional to the cell number. ATP is quantified by using the Promega CellTiterGlo® kit. The CellTiterGlo® reagents contain a cell lysis buffer, a thermo stable luciferase (UltraGlo™ recombinant luciferase), magnesium and luciferin. Luciferin reacts with ATP producing oxyluciferin, AMP and light. The luminescence signal is proportional to the ATP content.
The value of negative (neutral) control is determined for each assay plate by taking the average of 16 negative control wells. The neurogenic compound response is calculated for each compound as (compound/Negative Control)*100.
The values of EC150 from the dose response curve are determined for each test compound. The EC150 is the compound concentration at which 150% activity of control (100%) is reached.

In turn, `Cc1ccc(-n2nccc2-c2ccc3ncn(-c4ccc(C)cc4)c3c2)cc1` [Example 1, 1-p-Tolyl-6-(2-p-tolyl-2H-pyrazol-3-yl)-1H-benzoimidazole] yielded a melting point of 165 °C. This compound displayed an EC150 in data set [1] of 0.008 µM.

As to `c1ccc(-n2nccc2-c2ccc3ncn(-c4ccccc4)c3c2)cc1` [Example 2, 1-Phenyl-6-(2-phenyl-2H-pyrazol-3-yl)-1H-benzoimidazole], the melting point worked out at 194 °C. The EC150 in data set [1] was determined as 0.014 µM. In the case of `Fc1ccc(-n2nccc2-c2ccc3ncn(-c4ccccc4)c3c2)cc1` [Example 3, 6-[2-(4-Fluoro-phenyl)-2H-pyrazol-3-yl]-1-phenyl-1H-benzoimidazole], the melting point came out at 201 °C. Moreover, the EC150 in data set [1] came out at 0.024 µM. Compound `Cc1ccc(-n2nccc2-c2ccc3ncn(-c4ccccc4)c3c2)cc1` [Example 4, 1-Phenyl-6-(2-p-tolyl-2H-pyrazol-3-yl)-1H-benzoimidazole] yielded an EC150 in data set [1] of 0.015 µM. As to `Cc1ccc(-n2cnc3ccc(-c4ccnn4-c4ccccc4)cc32)cc1` [Example 5, 6-(2-Phenyl-2H-pyrazol-3-yl)-1-p-tolyl-1H-benzoimidazole], the melting point was 146 °C. In addition, in data set [1], the EC150 was determined as 0.0165 µM. For `Cc1ccc(-n2cnc3ccc(-c4ccnn4-c4ccc(F)cc4)cc32)cc1` [Example 6, 6-[2-(4-Fluoro-phenyl)-2H-pyrazol-3-yl]-1-p-tolyl-1H-benzoimidazole], the melting point was found to be 149 °C. In data set [1], this compound had an EC150 of 0.0195 µM.

The compound `Fc1ccc(-n2cnc3ccc(-c4ccnn4-c4ccccc4)cc32)cc1` [Example 7, 1-(4-Fluoro-phenyl)-6-(2-phenyl-2H-pyrazol-3-yl)-1H-benzoimidazole] had a melting point of 194 °C. The EC150 in data set [1] is 0.031 µM. Compound `Fc1ccc(-n2nccc2-c2ccc3ncn(-c4ccc(F)cc4)c3c2)cc1` [Example 8, 1-(4-Fluoro-phenyl)-6-[2-(4-fluoro-phenyl)-2H-pyrazol-3-yl]-1H-benzoimidazole] had a melting point of 173 °C. The compound also displayed an EC150 in data set [1] of 0.044 µM. In data set [1], `Cc1ccc(-n2nccc2-c2ccc3ncn(-c4ccc(F)cc4)c3c2)cc1` [Example 9, 1-(4-Fluoro-phenyl)-6-(2-p-tolyl-2H-pyrazol-3-yl)-1H-benzoimidazole] came in with an EC150 of 0.009 µM. With `Fc1ccc(-n2cnc3ccc(-c4ccnn4-c4ccc(C(F)(F)F)cc4)cc32)cc1` [Example 10, 1-(4-Fluoro-phenyl)-6-[2-(4-trifluoromethyl-phenyl)-2H-pyrazol-3-yl]-1H-benzoimidazole], the melting point came out at 167 °C. The EC150 in data set [1] stood at 1.1 µM.

Consider `Fc1ccc(-n2cnc3ccc(-c4ccnn4-c4ccc(Cl)cc4)cc32)cc1` [Example 11, 6-[2-(4-Chloro-phenyl)-2H-pyrazol-3-yl]-1-(4-fluoro-phenyl)-1H-benzoimidazole], for which the melting point stood at 180 °C. Besides, the EC150 in data set [1] stood at 0.11 µM. Take `FC(F)(F)c1ccc(-n2nccc2-c2ccc3ncn(-c4ccc(Cl)cc4)c3c2)cc1` [Example 12, 1-(4-Chloro-phenyl)-6-[2-(4-trifluoromethyl-phenyl)-2H-pyrazol-3-yl]-1H-benzoimidazole]: the melting point amounted to 198 °C. Further, the EC150 in data set [1] stood at 0.71 µM.

The compound `Clc1ccc(-n2nccc2-c2ccc3ncn(-c4ccc(Cl)cc4)c3c2)cc1` [Example 13, 1-(4-Chloro-phenyl)-6-[2-(4-chloro-phenyl)-2H-pyrazol-3-yl]-1H-benzoimidazole] came in with a melting point of 182 °C. Moreover, the EC150 in data set [1] amounted to 0.082 µM. `FC(F)(F)c1ccc(-n2cnc3ccc(-c4ccnn4-c4ccc(Cl)cc4)cc32)cc1` [Example 14, 6-[2-(4-Chloro-phenyl)-2H-pyrazol-3-yl]-1-(4-trifluoromethyl-phenyl)-1H-benzoimidazole] came in with a melting point of 196 °C. In addition, the EC150 in data set [1] was 0.62 µM. For `Fc1ccc(-n2cnc3ccc(-c4ccnn4-c4ccc(C(F)(F)F)cc4)cc32)c(F)c1` [Example 15, 1-(2,4-Difluoro-phenyl)-6-[2-(4-trifluoromethyl-phenyl)-2H-pyrazol-3-yl]-1H-benzoimidazole], the melting point came to 129 °C. For the same compound, the EC150 in data set [1] amounted to 1.33 µM. Turning to `Fc1ccc(-n2cnc3ccc(-c4ccnn4-c4ccc(Cl)cc4)cc32)c(F)c1` [Example 16, 6-[2-(4-Chloro-phenyl)-2H-pyrazol-3-yl]-1-(2,4-difluoro-phenyl)-1H-benzoimidazole], the melting point was determined as 133 °C. The same compound gave an EC150 in data set [1] of 0.19 µM. The compound `Fc1ccc(-n2nccc2-c2ccc3ncn(-c4ccc(F)cc4F)c3c2)cc1` [Example 17, 1-(2,4-Difluoro-phenyl)-6-[2-(4-fluoro-phenyl)-2H-pyrazol-3-yl]-1H-benzoimidazole] displayed a melting point of 152 °C. This compound also yielded an EC150 in data set [1] of 0.047 µM. With `Fc1ccc(-n2nccc2-c2ccc3ncn(-c4ccc(C(F)(F)F)cc4)c3c2)cc1` [Example 18, 6-[2-(4-Fluoro-phenyl)-2H-pyrazol-3-yl]-1-(4-trifluoromethyl-phenyl)-1H-benzoimidazole], the melting point is 204 °C. Further, the EC150 in data set [1] came to 0.41 µM. In the case of `Fc1ccc(-n2nccc2-c2ccc3ncn(-c4ccc(Cl)cc4)c3c2)cc1` [Example 19, 1-(4-Chloro-phenyl)-6-[2-(4-fluoro-phenyl)-2H-pyrazol-3-yl]-1H-benzoimidazole], the melting point worked out at 173 °C. Also, the EC150 in data set [1] came to 0.09 µM. Consider `Fc1ccc(-n2nccc2-c2ccc3ncn(-c4ccncc4)c3c2)cc1` [Example 20, 6-[2-(4-Fluoro-phenyl)-2H-pyrazol-3-yl]-1-pyridin-4-yl-1H-benzoimidazole], for which the melting point was determined as 199 °C. Besides, the EC150 in data set [1] stood at 0.044 µM. In turn, `Clc1ccc(-n2nccc2-c2ccc3ncn(-c4ccncc4)c3c2)cc1` [Example 21, 6-[2-(4-Chloro-phenyl)-2H-pyrazol-3-yl]-1-pyridin-4-yl-1H-benzoimidazole] showed a melting point of 203 °C. Also, the EC150 in data set [1] stood at 0.036 µM. `Fc1ccc(-n2nccc2-c2ccc3ncn(-c4ccc(Cl)cc4F)c3c2)cc1` [Example 22, 1-(4-Chloro-2-fluoro-phenyl)-6-[2-(4-fluoro-phenyl)-2H-pyrazol-3-yl]-1H-benzoimidazole]: the melting point amounted to 153 °C. In data set [1], this compound displayed an EC150 of 0.084 µM. Consider `Fc1cc(Cl)ccc1-n1cnc2ccc(-c3ccnn3-c3ccc(Cl)cc3)cc21` [Example 23, 1-(4-Chloro-2-fluoro-phenyl)-6-[2-(4-chloro-phenyl)-2H-pyrazol-3-yl]-1H-benzoimidazole], for which the melting point amounted to 158 °C. Moreover, in data set [1], the EC150 was found to be 0.17 µM. Turning to `COc1ccc(-n2cnc3ccc(-c4ccnn4-c4ccc(F)cc4)cc32)cc1` [Example 24, 6-[2-(4-Fluoro-phenyl)-2H-pyrazol-3-yl]-1-(4-methoxy-phenyl)-1H-benzoimidazole], the melting point stood at 143 °C. For the same compound, the EC150 in data set [1] worked out at 0.021 µM. As for `COc1ccc(-n2cnc3ccc(-c4ccnn4-c4ccc(Cl)cc4)cc32)cc1` [Example 25, 6-[2-(4-Chloro-phenyl)-2H-pyrazol-3-yl]-1-(4-methoxy-phenyl)-1H-benzoimidazole], the melting point is 163 °C. Besides, the EC150 in data set [1] amounted to 0.056 µM. Consider `CS(=O)(=O)c1ccc(-n2cnc3ccc(-c4ccnn4-c4ccc(F)cc4)cc32)cc1` [Example 26, 6-[2-(4-Fluoro-phenyl)-2H-pyrazol-3-yl]-1-(4-methanesulfonyl-phenyl)-1H-benzoimidazole], for which the melting point stood at 247 °C. Further, the EC150 in data set [1] was 0.28 µM. As to `CS(=O)(=O)c1ccc(-n2cnc3ccc(-c4ccnn4-c4ccc(Cl)cc4)cc32)cc1` [Example 27, 6-[2-(4-Chloro-phenyl)-2H-pyrazol-3-yl]-1-(4-methanesulfonyl-phenyl)-1H-benzoimidazole], the melting point amounted to 280 °C. In addition, the EC150 in data set [1] was 0.16 µM. In turn, `Fc1ccc(-n2cnc3ccc(-c4cncn4-c4ccccc4)cc32)cc1` [Example 28, 1-(4-Fluoro-phenyl)-6-(3-phenyl-3H-imidazol-4-yl)-1H-benzoimidazole] showed a melting point of 216 °C. The compound further yielded an EC150 in data set [1] of 0.07 µM. Compound `Fc1ccc(-n2cnc3ccc(-c4cncn4-c4ccc(Cl)cc4)cc32)cc1` [Example 29, 6-[3-(4-Chloro-phenyl)-3H-imidazol-4-yl]-1-(4-fluoro-phenyl)-1H-benzoimidazole] came in with a melting point of 254 °C. In data set [1], the EC150 stood at 0.074 µM.

The values are drawn from US9365550B2, “Benzimidazoles as CNS active agents” (Hoffmann-La Roche Inc., priority 2012, dated 2016).
